Results as given in patent US20230416299A1, “COMPOUND AND METHOD FOR THE TREATMENT AND DIAGNOSIS OF NEURODEGENERATIVE CONDITIONS” (Swansea University, priority 2013, published 2023).

Key:
[1] = system: Islet-1:GFP transgenic zebrafish embryos; format: in vivo
Procedure: Quantitative PCR. Total RNA was extracted from SN4741 cells and zebrafish treated with the compounds of interest using the RNeasy Mini Kit (Qiagen), 1 μg was treated with RQ1 RNase-free DNase (Promega) and reverse transcribed using Superscript II Reverse Transcriptase (Invitrogen) and random primers (Invitrogen) (RT+ reaction). Parallel reactions without reverse transcriptase enzyme were done as a control (RT− reaction), and Sybergreen real-time quantitative PCR assays were performed. Expression levels were obtained by normalization with the value of the housekeeping gene encoding actin obtained for every sample in parallel assays.
Zebrafish Strain and Mainrenance Zebrafish were raised on a 14/10 h day/night cycle and were kept at 28.5° C. Islet-1:GFP transgenic embryos were obtained via natural spawning and staged in hours or days post fertilization (hpf and dpf) according to Kimmel et al). Embryos older than 24 hpf were treated with 0.03% phenylthiourea (PTU) to inhibit pigmentation. MO injections were performed using splice site specific zebrafish 1xr MO. MO injected embryos were immediately dechorionated and transferred to a 96 well plate and exposed to dimethyl sulfoxide (DMSO) treated or ligand treated medium.
Compound Exposure. Islet-1:GFP embryos were collected by natural mating and immediately (at 1 cell stage) dechorionated and transferred to a 96 well plate. Each of the compounds tested were obtained as 10 mM stock and diluted in embryo medium to a final concentration of 10 μM, and 200 μL was added to each well. DMSO or propan-2-ol treated embryo medium was taken as control. Ligand solutions were replaced every 12 h with fresh ligand solution prepared in PTU treated embryo medium. Embryos were collected at 48 hpf, fixed for 4 h at room temperature with 4% paraformaldehyde and then washed and kept in PBST. Immunocytochemistry was performed using an anti-GFP antibody and fluorescence was viewed and photographed using a Zeiss Axioplan compound microscope and a Zeiss Axiocam digital camera.

[2] = system: mouse E11.5 brain primary cultures; experiment: Mouse E11.5 brain primary cultures (Islet1+, active caspase 3+, BrdU, Nkx6.1 counts); format: cell-based; details: for Number of Islet1+ cells: 3 DIV; for Number of active caspase-3+ cells: 10 μM 3β,7α-diHCA, 3βH,7O-CA, 25-HC, low concentrations of 3β,7β-diHCA, 3β-HCA
Procedure: Primary Brain Cultures. Brains from E11.5 mice were manually dissected, plated on poly-D-lysine (150,000 cells/cm2) and grown in serum-free N2 media consisting of 1:1 mixture of F12 and DMEM with 10 ng/mL insulin, 100 μg/mL apo-transferrin, 100 μM putrescine, 20 nM progesterone, 30 nM selenium, 6 mg/mL glucose, and 1 mg/mL BSA. Cells were treated for 3 days in vitro (DIV) with the compounds of interest, fixed with 4% PFA and processed for staining using appropriate antibodies.
For BrdU analysis, cells were treated with BrdU one hour after plating and media was replaced with fresh medium after 16 h. After a further 2 days in culture, cells were treated for 30 min with 2N HCl and then immunocytochemistry was performed to evaluate the number of double BrdU+;Islet1+ cells (a measure of motor neuron neurogenesis). Hoechst staining was performed by permeabilizing cells with a 0.3% Triton-X 100/PBS solution for 5 min followed by incubation with Hoechst 33258 (Sigma) for 10 min.
Antibodies and Detection Procedures. Cells were fixed in 4% PFA, washed in PBS and blocked in 5% normal goat serum/PBS for 1 h at room temperature. Primary antibodies were diluted in PBS (pH 7.4), 0.3% Triton X-100, 1% BSA and incubations were carried out overnight at +4° C. or at room temperature for 2 h. The antibodies used were anti-: BrdU (1:400; Abeam), Islet-1 (1:100; Developmental Studies Hybridoma Bank), cleaved caspase-3 (Asp175) (1:100; Cell Signaling Technology), tyrosine hydroxylase (TH;1:1000; Pel-Freeze) GABA (1:1,000; Sigma), Brn3a (1:250; Millipore), Nkx6.1 (1:200; Novus Biologicals), choline acetyltransferase (ChAT; 1:500; Millipore) and appropriate secondary antibodies (Jackson ImmunoResearch or Alexa). Cells positive for the corresponding marker were counted directly at the microscope at a magnification of 20 x. Cells were counted in every well, in eight consecutive fields (going from one side of the well to the other, passing through the center), in three different wells per experiment and in three different experiments per condition. Random pictures of the wells were taken for every condition to document the result, and representative pictures were subsequently selected to represent the quantitative data. Photos were acquired with a Zeiss Axioplan microscope and a Hamamatsu camera C4742-95 using the Openlab software.

| Structure (SMILES) | Islet-1 mRNA and protein level (qPCR, western blot) ([1]; 10 μM) | abca1 mRNA expression in vivo ([1]; 10 μM) | Islet-GFP expression in cranial nerves ([1]; 10 μM, 48 hpf) | Number of Islet1+ cells in cranial nerves (III, IV, V, VII, X) ([1]; 10 μM, 48 hpf) | Islet-GFP levels after lxr morpholino (MO) injection ([1]; 10 μM, lxr MO vs control scrambled MO) | Number of Nkx6.1+ progenitor cells [2] | Number of other midbrain neurons (TH+ dopamine, GABAergic, red nucleus) [2] | Reduction of neuronal cell death (activated caspase 3) induced by 2 μM 3β,7β-diHCA or 3β-HCA ([2]; 10 μM) | Rescue of loss of Islet1+ cells induced by 2 μM 3β,7β-diHCA or 3β-HCA ([2]; 10 μM) | Effect on active caspase-3+ cells with GGPP ([2]; GGPP 10 μM, 3β,7β-diHCA, 3β-HCA at 2 μM) | Number of Islet1+ cells ([2]; wild type cultures) | Concentration with significant difference (p<0.05) from vehicle in number of Islet1+ cells ([2]; wild type cultures, dose response) [µM] | Effect on Islet1+ cells with Lxr antagonist GGPP ([2]; wt cultures, GGPP 10 μM) | Number of active caspase-3+ cells ([2]; wt cultures) | Toxicity to zebrafish embryos ([1]; 10 μM in medium) | Concentration at which toxicity is initiated (active caspase-3+ cells) ([2]; mouse, E11.5 mouse brain primary cultures, 3 days) [nM] |
| --- | --- | --- | --- | --- | --- | --- | --- | --- | --- | --- | --- | --- | --- | --- | --- | --- |
| CC(CCC[C@@H](C)[C@H]1CC[C@H]2[C@@H]3[C@H](O)C=C4C[C@@H](O)CC[C@]4(C)[C@H]3CC[C@]12C)C(=O)O (stereo partly drawn) [3β,7α-diHCA, 3β,7α-dihydroxycholest-5-en-26-oic acid] | increase in the level of Islet-1 mRNA and protein | enhanced expression of abca1 | increased Islet-GFP expression | no significant effect on the number of Islet1+ cells | abolished the in vivo increase in Islet-GFP levels | did not affect the number of Nkx6.1+ progenitor cells | did not affect the number of other midbrain neurons | reduced the neuronal cell death | reversed the loss of Islet 1+ cells | completely blocked by co-incubation with the Lxr inhibitor GGPP | increased the number of Islet1+ oculomotor cells in the cultures | ≥ 5 | blocked by the Lxr antagonist GGPP | decreased the number of active caspase-3+ cells | – | – |
| CC(CCC[C@@H](C)[C@H]1CC[C@H]2[C@@H]3CC=C4C[C@@H](O)CC[C@]4(C)[C@H]3CC[C@]12C)C(=O)O (stereo partly drawn) [3β-HCA, 3β-hydroxycholest-5-en-26-oic acid] | – | – | – | – | – | did not affect the number of Nkx6.1+ progenitor cells | – | – | – | – | caused the loss of Islet1+ cells in the cultures | – | – | increased the number of active caspase-3+ cells | deleterious toxic effect which impaired the survival of the fish | 1000 |
